Values quoted from earlier work in patent US7897154B2, “Dermal drops” (ABR, LLC, priority 2006, dated 2011).

Columns and labels:
[1] = system: pre-adipocyte
[2] = animal models of non-insulin-dependent diabetes
[3] = system: H. ras transformed rat2 cells

## dehydrotrametenolic acid [DHTA]
[1]
  pre-adipocyte differentiation: induce pre-adipocyte differentiation
[2]
  sensitization to insulin: sensitize animal models of non-insulin-dependent diabetes to insulin
[3]
  apoptosis: induce apoptosis
  growth: inhibit the growth of H. ras
